Experimental data reported in US7678778B2 (priority 2004, dated 2010).

Test system: B16 Melanoma
Conditions: in vivo

Row | SMILES | T-C [days]
1 | O=P1(N(CCCl)CCCl)NCCCO1 (centres unmarked) [Cyclophosphamide, cyclophosphamide] | 27
2 | O=P1(NCCCl)OCCCN1CCCl (centres unmarked) [Ifosfamide] | 18
